# Measured values taken from patent US11214594B2, “Antimicrobial peptide having synergistic antibacterial effect with antibiotics on multidrug resistant bacteria, and use thereof” (priority 2016, dated 2022).
# Where a SMILES comes first, the peptide text is derived from it.
# Tests used:
# E. coli [1] = test: microbe, parasite or virus in culture; type: cell-based, Escherichia coli; conditions: 16 h
# Summary of the method: (§1)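 Each strain is brought to 2×10^6 CFU in nutrient-sufficient Mueller-Hinton medium and dispensed into wells. Peptide solutions, stepwise diluted 2:1 in the same medium, are then added. The minimal concentration preventing growth gives the MIC.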
# MDREC 1229 [2] = test: microbe, parasite or virus in culture; type: cell-based, Escherichia coli
# Summary of the method: as §1
# MDREC 1238 = type: cell-based, Escherichia coli
# Summary of the method: as §1
# P. aeruginosa = test: microbe, parasite or virus in culture; type: cell-based, Pseudomonas aeruginosa
# Summary of the method: as §1
# MDRAB 12036 = type: cell-based, Acinetobacter baumannii
# Summary of the method: as §1
# S. typhimurium = test: microbe, parasite or virus in culture; type: cell-based, Salmonella typhimurium
# Summary of the method: as §1
# MDRST 8007 = test: Minimal inhibitory concentration (MIC), single agent; type: cell-based, Salmonella typhimurium; conditions: agent alone
# Summary of the method: as §1
# MDRST 8009 = type: cell-based, Salmonella typhimurium; conditions: agent alone
# Summary of the method: as §1
# S. epidermidis = test: microbe, parasite or virus in culture; type: cell-based, Staphylococcus epidermidis
# Summary of the method: as §1
# S. aureus = test: microbe, parasite or virus in culture; type: cell-based, Staphylococcus aureus
# Summary of the method: as §1
# MRSA 3114 = type: cell-based, Staphylococcus aureus; conditions: 3114
# Summary of the method: as §1
# MRSA 3126 = type: cell-based, Staphylococcus aureus; conditions: 3126
# Summary of the method: as §1
# E. coli [3] = test: MIC of antibiotic during combined treatment with antimicrobial peptide; type: cell-based, Escherichia coli; conditions: for Antibiotic MIC, Erythromycin / Antibiotic MIC, Linezolid / Antibiotic MIC, Vancomycin: E. coli
# Summary of the method: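 First, antibiotic solution is diluted with MH medium; next, the dilution is dispensed into wells containing peptide; finally, the orientation is swapped and MIC of each mixture determined.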
# MDREC 1229 [4] = test: as above; type: cell-based, Escherichia coli
# Summary of the method: (§2)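 Broth microdilution in MH medium; strains were diluted to 2×10^6 CFU per ml before plating. Peptide was serially diluted stepwise at 2:1 starting from its MIC, and MH-diluted antibiotic was then added to determine MIC. The reversed arrangement was also tested.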
# A. baumannii = test: MIC of antimicrobial peptide during combined treatment with antibiotic; type: cell-based, Acinetobacter baumannii
# Summary of the method: as §2
# MDRAB 12035 = test: as above; type: cell-based, Acinetobacter baumannii
# Summary of the method: as §2
# [5] = peptide treatment concentration 1 μg/ml
# [6] = peptide treatment concentration 2 μg/ml
# [7] = peptide treatment concentration 4 μg/ml
# [8] = peptide treatment concentration 6 μg/ml
# [9] = peptide treatment concentration 8 μg/ml
# [10] = peptide treatment concentration 16 μg/ml
# [11] = peptide treatment concentration 32 μg/ml
# [12] = peptide treatment concentration 64 μg/ml
# [13] = erythromycin 4 μg/ml (Conc./MIC 1/8)
# [14] = erythromycin 8 μg/ml (Conc./MIC 1/4)
# [15] = erythromycin 16 μg/ml (Conc./MIC 1/2)
# [16] = erythromycin 32 μg/ml (Conc./MIC 1)
# [17] = vancomycin 512 μg/ml (Conc./MIC 1/2)
# [18] = vancomycin 1024 μg/ml (Conc./MIC 1)
smiles,measurement,setting,value
"CC[C@H](C)[C@H](NC(=O)[C@H](CCCCN)NC(=O)[C@H](Cc1c[nH]c2ccccc12)NC(=O)[C@@H](N)CCCNC(=N)N)C(=O)N[C@@H](Cc1ccccc1)C(=O)N[C@@H](CCCCN)C(=O)N[C@@H](CCCCN)C(=O)N[C@H](C(=O)N1CCC[C@H]1C(=O)N[C@@H](CCCCN)C(=O)N[C@@H](Cc1ccccc1)C(=O)N[C@@H](CC(C)C)C(=O)N[C@@H](Cc1c[nH]cn1)C(=O)N[C@@H](CO)C(=O)N[C@@H](Cc1c[nH]c2ccccc12)C(=O)N[C@@H](CCCCN)C(=O)N[C@@H](CCCCN)C(=O)N[C@@H](Cc1ccccc1)C(N)=O)[C@@H](C)CC [PapMA-3, RWK IFK KIP KFL HSW KKF-NH2] (H-RWKIFKKIPKFLHSWKKF-NH2; N-terminus assumed)",Minimal inhibitory concentration MIC,E. coli [1],32 µg/mL
same,Minimal inhibitory concentration MIC,MDREC 1229 [2],32 µg/mL
same,Minimal inhibitory concentration MIC,MDREC 1238,64 µg/mL
same,Minimal inhibitory concentration MIC,P. aeruginosa,16 µg/mL
same,Minimal inhibitory concentration MIC,MDRAB 12036,16 µg/mL
same,Minimal inhibitory concentration MIC,S. typhimurium,32 µg/mL
same,Minimal inhibitory concentration MIC,MDRST 8007,32 µg/mL
same,Minimal inhibitory concentration MIC,MDRST 8009,64 µg/mL
same,Minimal inhibitory concentration MIC,S. epidermidis,>128 µg/mL
same,Minimal inhibitory concentration MIC,S. aureus,>128 µg/mL
same,Minimal inhibitory concentration MIC,MRSA 3114,>128 µg/mL
same,Minimal inhibitory concentration MIC,MRSA 3126,>128 µg/mL
same,Synergistic effect of antibacterial activity with existing antibiotics compared with PapMA-1,E. coli [3]; E. coli and MDREC1229,level similar to that of the PapMA-1 peptide
same,"Antibiotic MIC, Erythromycin",E. coli [3]; erythromycin combined with peptide at 1 μg/ml,64 µg/mL
same,"Antibiotic MIC, Erythromycin",E. coli [3]; erythromycin combined with peptide at 2 μg/ml,32 µg/mL
same,"Antibiotic MIC, Erythromycin",E. coli [3]; erythromycin combined with peptide at 4 μg/ml,16 µg/mL
same,"Antibiotic MIC, Erythromycin",E. coli [3]; erythromycin combined with peptide at 6 μg/ml,4 µg/mL
same,"Antibiotic MIC, Erythromycin",E. coli [3]; erythromycin combined with peptide at 8 μg/ml,1 µg/mL
same,"Antibiotic MIC, Erythromycin",E. coli [3]; erythromycin combined with peptide at 16 μg/ml,0.125 µg/mL
same,"Antibiotic MIC, Erythromycin",E. coli [3]; erythromycin combined with peptide at 32 μg/ml,0 µg/mL
same,"Antibiotic MIC, Erythromycin",E. coli [3]; erythromycin combined with peptide at 64 μg/ml,0 µg/mL
same,"Antibiotic MIC, Linezolid",E. coli [3]; linezolid combined with peptide at 1 μg/ml,128 µg/mL
same,"Antibiotic MIC, Linezolid",E. coli [3]; linezolid combined with peptide at 2 μg/ml,64 µg/mL
same,"Antibiotic MIC, Linezolid",E. coli [3]; linezolid combined with peptide at 4 μg/ml,32 µg/mL
same,"Antibiotic MIC, Linezolid",E. coli [3]; linezolid combined with peptide at 6 μg/ml,32 µg/mL
same,"Antibiotic MIC, Linezolid",E. coli [3]; linezolid combined with peptide at 8 μg/ml,16 µg/mL
same,"Antibiotic MIC, Linezolid",E. coli [3]; linezolid combined with peptide at 16 μg/ml,2 µg/mL
same,"Antibiotic MIC, Linezolid",E. coli [3]; linezolid combined with peptide at 32 μg/ml,0 µg/mL
same,"Antibiotic MIC, Linezolid",E. coli [3]; linezolid combined with peptide at 64 μg/ml,0 µg/mL
same,"Antibiotic MIC, Vancomycin",E. coli [3]; vancomycin combined with peptide at 1 μg/ml,>128 µg/mL
same,"Antibiotic MIC, Vancomycin",E. coli [3]; vancomycin combined with peptide at 2 μg/ml,>128 µg/mL
same,"Antibiotic MIC, Vancomycin",E. coli [3]; vancomycin combined with peptide at 4 μg/ml,>128 µg/mL
same,"Antibiotic MIC, Vancomycin",E. coli [3]; vancomycin combined with peptide at 6 μg/ml,128 µg/mL
same,"Antibiotic MIC, Vancomycin",E. coli [3]; vancomycin combined with peptide at 8 μg/ml,32 µg/mL
same,"Antibiotic MIC, Vancomycin",E. coli [3]; vancomycin combined with peptide at 16 μg/ml,8 µg/mL
same,"Antibiotic MIC, Vancomycin",E. coli [3]; vancomycin combined with peptide at 32 μg/ml,0 µg/mL
same,"Antibiotic MIC, Vancomycin",E. coli [3]; vancomycin combined with peptide at 64 μg/ml,0 µg/mL
same,"Antibiotic MIC, Erythromycin",MDREC 1229 [4]; [5],128 µg/mL
same,"Antibiotic MIC, Linezolid",MDREC 1229 [4]; [5],>128 µg/mL
same,"Antibiotic MIC, Vancomycin",MDREC 1229 [4]; [5],>128 µg/mL
same,"Antibiotic MIC, Erythromycin",MDREC 1229 [4]; [6],32 µg/mL
same,"Antibiotic MIC, Linezolid",MDREC 1229 [4]; [6],64 µg/mL
same,"Antibiotic MIC, Vancomycin",MDREC 1229 [4]; [6],>128 µg/mL
same,"Antibiotic MIC, Erythromycin",MDREC 1229 [4]; [7],32 µg/mL
same,"Antibiotic MIC, Linezolid",MDREC 1229 [4]; [7],64 µg/mL
same,"Antibiotic MIC, Vancomycin",MDREC 1229 [4]; [7],>128 µg/mL
same,"Antibiotic MIC, Erythromycin",MDREC 1229 [4]; [8],16 µg/mL
same,"Antibiotic MIC, Linezolid",MDREC 1229 [4]; [8],32 µg/mL
same,"Antibiotic MIC, Vancomycin",MDREC 1229 [4]; [8],>128 µg/mL
same,"Antibiotic MIC, Erythromycin",MDREC 1229 [4]; [9],4 µg/mL
same,"Antibiotic MIC, Linezolid",MDREC 1229 [4]; [9],16 µg/mL
same,"Antibiotic MIC, Vancomycin",MDREC 1229 [4]; [9],128 µg/mL
same,"Antibiotic MIC, Erythromycin",MDREC 1229 [4]; [10],0.25 µg/mL
same,"Antibiotic MIC, Linezolid",MDREC 1229 [4]; [10],4 µg/mL
same,"Antibiotic MIC, Vancomycin",MDREC 1229 [4]; [10],16 µg/mL
same,"Antibiotic MIC, Erythromycin",MDREC 1229 [4]; [11],0 µg/mL
same,"Antibiotic MIC, Linezolid",MDREC 1229 [4]; [11],0 µg/mL
same,"Antibiotic MIC, Vancomycin",MDREC 1229 [4]; [11],0 µg/mL
same,"Antibiotic MIC, Erythromycin",MDREC 1229 [4]; [12],0 µg/mL
same,"Antibiotic MIC, Linezolid",MDREC 1229 [4]; [12],0 µg/mL
same,"Antibiotic MIC, Vancomycin",MDREC 1229 [4]; [12],0 µg/mL
same,Peptide MIC during treatment with antibiotic,A. baumannii; [13],4 µg/mL
same,Peptide MIC during treatment with antibiotic,A. baumannii; [14],4 µg/mL
same,Peptide MIC during treatment with antibiotic,A. baumannii; [15],2 µg/mL
same,Peptide MIC during treatment with antibiotic,A. baumannii; [16],0 µg/mL
same,Peptide MIC during treatment with antibiotic,A. baumannii; linezolid 32 μg/ml (Conc./MIC 1/8),4 µg/mL
same,Peptide MIC during treatment with antibiotic,A. baumannii; linezolid 64 μg/ml (Conc./MIC 1/4),2 µg/mL
same,Peptide MIC during treatment with antibiotic,A. baumannii; linezolid […] (Conc./MIC 1),0 µg/mL
same,Peptide MIC during treatment with antibiotic,A. baumannii; linezolid […] (Conc./MIC 1/2),1 µg/mL
same,Peptide MIC during treatment with antibiotic,A. baumannii; [17],0.25 µg/mL
same,Peptide MIC during treatment with antibiotic,A. baumannii; [18],0 µg/mL
same,Peptide MIC during treatment with antibiotic,A. baumannii; vancomycin […] (Conc./MIC 1/4),0.25 µg/mL
same,Peptide MIC during treatment with antibiotic,A. baumannii; vancomycin […] (Conc./MIC 1/8),2 µg/mL
same,Peptide MIC during treatment with erythromycin,MDRAB 12035; [13],4 µg/mL
same,Peptide MIC during treatment with erythromycin,MDRAB 12035; [14],4 µg/mL
same,Peptide MIC during treatment with erythromycin,MDRAB 12035; [15],2 µg/mL
same,Peptide MIC during treatment with erythromycin,MDRAB 12035; [16],0 µg/mL
same,Peptide MIC during treatment with linezolid,MDRAB 12035; linezolid 64 μg/ml (Conc./MIC 1/8),4 µg/mL
same,Peptide MIC during treatment with linezolid,MDRAB 12035; linezolid 512 μg/ml (Conc./MIC 1),0 µg/mL
same,Peptide MIC during treatment with linezolid,MDRAB 12035; linezolid […] (Conc./MIC 1/2),1 µg/mL
same,Peptide MIC during treatment with linezolid,MDRAB 12035; linezolid […] (Conc./MIC 1/4),2 µg/mL
same,Peptide MIC during treatment with vancomycin,MDRAB 12035; [17],2 µg/mL
same,Peptide MIC during treatment with vancomycin,MDRAB 12035; [18],0.25 µg/mL
same,Peptide MIC during treatment with vancomycin,MDRAB 12035; vancomycin […] (Conc./MIC 1/4),2 µg/mL
same,Peptide MIC during treatment with vancomycin,MDRAB 12035; vancomycin […] (Conc./MIC 1/8),4 µg/mL
